Patent US8741940B2, “Microbicidal composition” (Rohm and Haas Company, priority 2005, dated 2014)
Like-named read-outs stand apart in the source and are kept apart here.

How the values were obtained:
Type in all cases: cell-based
[1] = test system: Escherichia coli (E. coli—ATCC #8739); test: Synergy test, microtiter plate high resolution MIC assay, bacterium in M9GY medium; design: key to SI (synergy index): SI = Qa/QA + Qb/QB; >1 antagonism, lower SI = greater synergy; Qa (First Component A) / Qb (Second Component B): unit: ppm; conditions: for MIC: Escherichia coli, read-out: Qb (concentration of second component producing the end point, MIC)
Experimental: (§1) When the sum of Qa/QA and Qb/QB is greater than one, antagonism is indicated. […] The lower the SI, the greater the synergy shown by that particular mixture. The minimum inhibitory concentration (MIC) of a microbicide is the lowest concentration tested under a specific set of conditions that prevents the growth of added microorganisms.
(§2) Synergy tests were conducted using standard microtiter plate assays with media designed for optimal growth of the test microorganism. Minimal salt medium supplemented with 0.2% glucose and 0.1% yeast extract (M9GY medium) was used for testing bacteria; Potato Dextrose Broth (PDB medium) was used for testing yeast and mold. In this method, a wide range of combinations of microbicides and other personal care raw materials was tested by conducting high resolution MIC assays in the presence of various concentrations of BBIT or MBIT. High resolution MICs were determined by adding varying amounts of microbicide to one column of a microtitre plate and doing subsequent […] dilutions using an automated liquid handling system to obtain a series of endpoints ranging from 2 ppm to 10,000 ppm active ingredient.
(§3) The bacteria were used at a concentration of about 5 ×10^6 bacteria per mL and the yeast and mold at 5×10^5 fungi per mL. These microorganisms are representative of natural contaminants in many consumer and industrial applications. […] (yeast and mold) or 30° C. (bacteria).
(§4) In each test, First Component (A) was BBIT and the Second Component (B) was the other commercial microbicide.
(§5) In each test, First Component (A) was MBIT and the Second Component (B) was the other commercial microbicide.

[2] = test system: Aspergillus niger (A. niger—ATCC 16404); test: Synergy test, microtiter plate high resolution MIC assay, mold in PDB medium; design: key to SI (synergy index): SI = Qa/QA + Qb/QB; >1 antagonism, lower SI = greater synergy; Qb (Second Component B) / Qa (First Component A): unit: ppm; conditions: for MIC: Aspergillus niger, ATCC16404, 72 h, read-out: Qb (concentration of second component producing the end point, MIC)
Experimental: as §1, §2, §3, §4, §5

[3] = test system: Candida albicans (C. albicans—ATCC 10231); test: Synergy test, microtiter plate high resolution MIC assay, yeast in PDB medium; design: key to SI (synergy index): SI = Qa/QA + Qb/QB; >1 antagonism, lower SI = greater synergy; Qb (Second Component B) / Qa (First Component A): unit: ppm; conditions: for MIC: Candida albicans, read-out: Qb (concentration of second component producing the end point, MIC)
Experimental: as §1, §2, §3, §4, §5

[4] = A. niger 16404, PDB, 3 days, alone where Qa = 0, otherwise in the mixture
[5] = A=MBIT, B=DMDM Hydantoin (DMDMH), E. coli 8739 - M9GY, 24 hours
[6] = A=MBIT, B=DMDM Hydantoin (DMDMH), A. niger 16404 - PDB, 3 days
[7] = A=MBIT, B=DMDM Hydantoin (DMDMH), C. albicans 10231 - PDB, 24 hours
[8] = E. coli 8739, M9GY, 24 hours, alone where Qa = 0, otherwise in the mixture
[9] = C. albicans 10231, PDB, 24 hours
[10] = C. albicans 10231, PDB, 24 hours, alone where Qa = 0, otherwise in the mixture
[11] = A=MBIT, B=Caprylyl glycol, E. coli 8739 - M9GY, 24 hours
[12] = A=MBIT, B=Caprylyl glycol, A. niger 16404 - PDB, 4 days
[13] = A=MBIT, B=Caprylyl glycol, C. albicans 10231 - PDB, 24 hours

CCCCC(CC)CN1CN(CC(CC)CCCC)CC(C)(N)C1 (centres unmarked) [Hexetidine]
SI (synergy index) ([1]; E. coli 8739, M9GY, 72 hours): 1.00 | SI ([1]; E. coli 8739 - M9GY, 72 hours, BBIT + hexetidine): 1.00 | Qb (Second Component B = Hexetidine) ([1]; E. coli 8739 - M9GY, 72 hours, hexetidine alone (Qa 0) or in mixture with BBIT): 200 | MIC ([1]; ATCC8739, E. coli 8739, M9GY, 72 hours, alone where Qa = 0, otherwise in the mixture): 80 mg/L | SI (synergy index) ([2]; A. niger 16404, PDB, 3 days): 1.00 | SI ([2]; A. niger 16404 - PDB, 4 days, BBIT + hexetidine): 1.00 | Qb (Second Component B = Hexetidine) ([2]; A. niger 16404 - PDB, 4 days, hexetidine alone (Qa 0) or in mixture with BBIT): 100 | MIC [2, 4]: 200 mg/L | SI (synergy index) ([3]; C. albicans 10231, PDB, 72 hours): 1.00 | SI ([3]; C. albicans 10231 - PDB, 72 hours, BBIT + hexetidine): 1.00 | Qb (Second Component B = Hexetidine) ([3]; C. albicans 10231 - PDB, 72 hours, hexetidine alone (Qa 0) or in mixture with BBIT): 100 | MIC ([3]; ATCC10231, C. albicans 10231, PDB, 72 hours, alone where Qa = 0, otherwise in the mixture): 80 mg/L

O=C(O)CN(CCN(CC(=O)O)CC(=O)O)CC(=O)O [Ethylenediamine tetraacetic acid]
SI (synergy index) [1]: 1.00 | MIC ([1]; ATCC8739, 24 h): 40000 mg/L | SI (synergy index) [2]: 1.00 | MIC [2]: 1600 mg/L | SI (synergy index) [3]: 1.00 | MIC ([3]; ATCC10231, 48 h): 1000 mg/L

Zinc pyrithione
Qb (concentration of Second Component B = Zinc pyrithione at the end point) [1]: 2 | SI (synergy index) [1]: 1.00 | Qb (concentration of Second Component B = Zinc pyrithione at the end point) [2]: 20 | SI (synergy index) [2]: 1.00 | Qb (concentration of Second Component B = Zinc pyrithione at the end point) [3]: 30 | SI (synergy index) [3]: 1.00

CC1(C)C(=O)N(CO)C(=O)N1CO [DMDM Hydantoin, 1,3-dimethylol-5,5-dimethylhydantoin]
Qb (Second Component B) [1, 5]: 50 | SI (synergy index) [1, 5]: 1.00 | SI ([1]; E. coli 8739 - M9GY, 72 hours, BBIT + DMDMH): 1.00 | Qb (Second Component B = DMDMH) ([1]; E. coli 8739 - M9GY, 72 hours, DMDMH alone (Qa 0) or in mixture with BBIT): 200 | SI ([2]; A. niger 16404 - PDB, 7 days, BBIT + DMDMH): 1.00 | Qb (Second Component B = DMDMH) ([2]; A. niger 16404 - PDB, 7 days, DMDMH alone (Qa 0) or in mixture with BBIT): 1000 | Qb (Second Component B) [2, 6]: 1000 | SI (synergy index) [2, 6]: 1.00 | Qb (Second Component B) [3, 7]: 3000 | SI (synergy index) [3, 7]: 1.00 | SI ([3]; C. albicans 10231 - PDB, 24 hours, BBIT + DMDMH): 1.00 | Qb (Second Component B = DMDMH) ([3]; C. albicans 10231 - PDB, 24 hours, DMDMH alone (Qa 0) or in mixture with BBIT): 3000

N=C(N)c1ccc(OCCCCCCOc2ccc(C(=N)N)cc2)cc1.O=S(=O)(O)CCO.O=S(=O)(O)CCO [Hexamidine diisethionate]
SI (synergy index) ([1]; E. coli 8739, M9GY, 24 hours): 1.00 | Qb (concentration of second component producing the end point, MIC) [1, 8]: 8 ppm | SI ([1]; E. coli 8739 - M9GY, 48 hours, BBIT + hexamidine diisethionate): 1.00 | Qb (Second Component B = Hexamidine diisethionate) ([1]; E. coli 8739 - M9GY, 48 hours, hexamidine diisethionate alone (Qa 0) or in mixture with BBIT): 100 | SI (synergy index) [3, 9]: 1.00 | Qb (concentration of second component producing the end point, MIC) [3, 10]: 10 ppm | SI ([3]; C. albicans 10231 - PDB, 24 hours, BBIT + hexamidine diisethionate): 1.00 | Qb (Second Component B = Hexamidine diisethionate) ([3]; C. albicans 10231 - PDB, 24 hours, hexamidine diisethionate alone (Qa 0) or in mixture with BBIT): 10

CCCCCCC(O)CO (centres unmarked) [Caprylyl glycol]
Qb (Second Component B) [1, 11]: 2000 | SI (synergy index) [1, 11]: 1.00 | MIC of the component acting alone (QA / QB) ([1]; E. coli 8739, M9GY, 24 hours, 30° C.): 2000 ppm | MIC of the component acting alone (QA / QB) ([2]; A. niger 16404, PDB, 7 days, 25° C.): 3000 ppm | Qb (Second Component B) [2, 12]: 1000 | SI (synergy index) [2, 12]: 1.00 | Qb (Second Component B) [3, 13]: 4000 | SI (synergy index) [3, 13]: 1.00 | MIC of the component acting alone (QA / QB) ([3]; C. albicans 10231, PDB, 24 hours, 25° C.): 3000 ppm

O=C([O-])c1ccccc1.[Na+] [Sodium benzoate]
SI (synergy index) ([1]; E. coli 8739, M9GY, 24 hours): 1.00 | Qb (concentration of second component producing the end point, MIC) [1, 8]: 10000 ppm | SI ([1]; E. coli 8739 - M9GY, 24 hours, BBIT with Sodium benzoate): 1.00 | SI (synergy index) ([2]; A. niger 16404, PDB, 7 days): 1.00 | Qb (concentration of second component producing the end point, MIC) ([2]; A. niger 16404, PDB, 7 days, alone where Qa = 0, otherwise in the mixture): 10000 ppm | SI ([2]; A. niger 16404 - PDB, 7 days, BBIT with Sodium benzoate): 1.00 | SI (synergy index) ([3]; C. albicans 10231, PDB, 48 hours): 1.00 | Qb (concentration of second component producing the end point, MIC) ([3]; C. albicans 10231, PDB, 48 hours, alone where Qa = 0, otherwise in the mixture): 2000 ppm | SI ([3]; C. albicans 10231 - PDB, 48 hours, BBIT with Sodium benzoate): 1.00

ClC=CC[N+]12CN3CN(CN(C3)C1)C2.[Cl-] [Quaternium-15, 1-(3-chloroallyl)-3,5,7-triaza-1-azoniaadamantane chloride]
SI (synergy index) ([1]; E. coli 8739, M9GY, 24 hours): 1.00 | SI ([1]; E. coli 8739 - M9GY, 72 hours, BBIT with Quaternium-15): 1.00 | MIC ([1]; ATCC8739, 24 h): 50 mg/L | SI (synergy index) ([2]; A. niger 16404, PDB, 3 days): 1.00 | SI ([2]; A. niger 16404 - PDB, 4 days, BBIT with Quaternium-15): 1.00 | MIC [2]: 3000 mg/L | SI (synergy index) [3, 9]: 1.00 | SI ([3]; C. albicans 10231 - PDB, 24 hours, BBIT with Quaternium-15): 1.00 | MIC ([3]; ATCC10231, 24 h): 500 mg/L

Hexylene glycol
SI (synergy index) ([1]; E. coli 8739, M9GY, 24 hours): 1.00 | Qb (concentration of second component producing the end point, MIC) [1, 8]: 20000 ppm | SI ([1]; E. coli 8739 - M9GY, 24 hours, BBIT + hexylene glycol): 1.00 | Qb (Second Component B = Hexylene glycol) ([1]; E. coli 8739 - M9GY, 24 hours, hexylene glycol alone (Qa 0) or in mixture with BBIT): 20000 | SI (synergy index) ([2]; A. niger 16404, PDB, 3 days): 1.00 | Qb (concentration of second component producing the end point, MIC) [2, 4]: 20000 ppm | SI ([2]; A. niger 16404 - PDB, 3 days, BBIT + hexylene glycol): 1.00 | Qb (Second Component B = Hexylene glycol) ([2]; A. niger 16404 - PDB, 3 days, hexylene glycol alone (Qa 0) or in mixture with BBIT): 20000 | SI (synergy index) [3, 9]: 1.00 | Qb (concentration of second component producing the end point, MIC) [3, 10]: 20000 ppm | SI ([3]; C. albicans 10231 - PDB, 24 hours, BBIT + hexylene glycol): 1.00 | Qb (Second Component B = Hexylene glycol) ([3]; C. albicans 10231 - PDB, 24 hours, hexylene glycol alone (Qa 0) or in mixture with BBIT): 20000
